# In patent US6169076A, “P-Boronophenylalanine complexes with fructose and related carbohydrates and polyols” (Glcosyn Pharmaceuticals, Inc., priority 1999, dated 2001):
# Structures can show the parent of a compound that is named as a salt.
# Experiments:
# [1] = Complex formation constants of p-BPA with carbohydrates and polyols, by integration of aryl protons in the 1H NMR spectrum (D2O, pH buffered at 7.4); type: physicochemical; conditions: for log Keq (complex formation constant, disaccharides) / log Keq (complex formation constant, polyols) / log Keq (complex formation constant, monosaccharides): L-p-BPA, 1H NMR, D2O, pH buffered at 7.4; for difference in binding constants: maltulose, lactulose and fructose compared; for decrease in binding: C-3 hydroxyl unavailable; for binding with l-p-BPA / change in the 1H NMR spectrum of l-p-BPA: in words; for decrease in the pKeq values of these complexes: C-6 hydroxyl eliminated from binding, relative to fructose
# Source text: (§1) The ratio of free p-BPA to p-BPA:carbohydrate complex can be determined by integration of the aromatic protons resonances (p-BPA, 7.73 and 7.33 ppm; p-BPA-carbohydrate complex, 7.5 and 7.2 ppm) in the ^1 H NMR spectrum using D2 O buffered to physiological pH as the solvent. A minimum of five measurements for each carbohydrate at various concentrations and p-BPA:carbohydrate ratios were taken, and the equilibrium constant calculated (Table 1 and Table 2). Likewise, complex formation constants for p-BPA and some polyols have been calculated (Table 3).
# ^a All values were determined for L-p-BPA by integration of aryl
# protons in the ^j H NMR spectrum (D2 O, pH buffered at 7.4).
# ^a All values were determined for L-p-BPA by intergration of aryl
# protons in the ^l H NMR spectrum (D2 O, pH buffered at 7.4).
# The strong correspondence between the NMR data obtained for the l-p-BPA-fructose complex at physiological pH and one of the complexes (e.g., as observed for p-tolylboronic acid with fructose at pD 11-12) was further investigated by a systematic study of the binding ability of fructose-containing disaccharides (Table 2). […] However, the presence of the added 4-O-glucosyl or galactosyl group had no positive effect on binding either.
# While the hydroxyl at C-3 for turanose is eliminated from binding due to the presence of the glucosyl moiety, the C-3 hydroxyl of leucrose is also unavailable for binding due to a likely significant contribution from the conformation that places the glucosyl unit in an equatorial position, resulting in a diaxial orientation between the anomeric C-2 hydroxyl and C-3 hydroxyl axial. Loss in binding ability for leucrose can also be attributed to the fructose unit being locked in the less favored pyranose ring form.
# [2] = State of p-BPA in solution at pH 7.4 with strongly complexing or excess carbohydrate/polyol; type: physicochemical
# Source text: as §1
# [3] = cited from earlier work
# [4] = system: melanoma cells; conditions: in words; cited from earlier work
# [5] = system: murine melanoma model; conditions: systemic administration; cited from earlier work
# [6] = solution from current methods, roughly one equivalent of NaCl; cited from earlier work
# [7] = intravenous; solution from current methods; cited from earlier work
# [8] = Hydration of the freeze-dried solid with warm water and standing at room temperature; type: physicochemical
# Method: ^10 B enriched l-p-boronophenylalanine (0.520 g) and d-fructose (0.473 g) was suspended in distilled water (3 mL), and l-p-boronophenylalanine was dissolved by addition of 0.5 M NaOH (5.3 mL) with gentle heating. The pH of this solution is typically between 8.5 and 9.0. […] The solution is removed from the resin, and any l-p-boronophenylalanine that is suspended can be redissolved with gentle warming of the solution. The room temperature solution was then filtered through a 0.2μ filter and then freeze-dried to give sodium l-p-boronophenylalanine-d-fructose complex (0.934 g). […] M.p. 90-93° C.
# [9] = 0.1 M solution; cited from earlier work
# [10] = patients injected with p-BPA solution of this acidity; cited from earlier work
compound,measurement,setting,value
Maltulose,"log Keq (complex formation constant, disaccharides)",[1],3.1
same,difference in binding constants,[1],lack of appreciable difference in binding constants
OC[C@@H](O)[C@@H](O)[C@H](O)[C@@H](O)CO [Sorbitol],"log Keq (complex formation constant, polyols)",[1],3.2
O=C[C@H](O)[C@@H](O)[C@H](O)[C@H](O)CO [Glucose],"log Keq (complex formation constant, monosaccharides)",[1],1.4
OC[C@H]1O[C@H](O[C@@H]2COC(O)(CO)[C@@H](O)[C@@H]2O)[C@H](O)[C@@H](O)[C@@H]1O (some centres unmarked) [Leucrose],decrease in binding,[1],1.5 pKeq
same,"log Keq (complex formation constant, disaccharides)",[1],1.7
O=C(CO)[C@@H](O[C@H]1O[C@H](CO)[C@@H](O)[C@H](O)[C@H]1O)[C@H](O)[C@H](O)CO [Turanose],decrease in binding,[1],1.5 pKeq
same,"log Keq (complex formation constant, disaccharides)",[1],1.6
O=C[C@H](O)[C@H](O)[C@H](O)CO [Ribose],"log Keq (complex formation constant, monosaccharides)",[1],1.8
"N[C@@H](Cc1ccc(B(O)O)cc1)C(=O)O [p-BPA, p-Boronophenylalanine]",p-BPA remaining in solution,"[2]; fructose, sorbose, or large excess of another carbohydrate or polyol",all of the p-BPA remains in solution
same,p-BPA present as its sodium carboxylate,[2]; remainder as free acid,approximately 90%
same,water solubility at physiological pH,"[3]; pH 7.4, in words",poor water solubility
same,solubility in water,[3]; water,1.6 g/L
same,uptake by melanoma cells,[4],selectively taken up by melanoma cells
OC[C@@H](O)[C@@H](O)[C@H](O)[C@H](O)CO [Mannitol],"log Keq (complex formation constant, polyols)",[1],2.7
OC[C@@H](O)[C@@H](O)[C@@H](O)CO [Adonitol],"log Keq (complex formation constant, polyols)",[1],1.7
O=CC[C@@H](O)[C@H](O)[C@H](O)CO [2-Deoxyglucose],"log Keq (complex formation constant, monosaccharides)",[1],< 0
O=C(CO)[C@@H](O)[C@H](O)[C@H](O)CO [Fructose],"log Keq (complex formation constant, monosaccharides)",[1],3.2
same,difference in binding constants,[1],lack of appreciable difference in binding constants
OC[C@@H](O)[C@H](O)[C@@H](O)CO [Xylitol],"log Keq (complex formation constant, polyols)",[1],2.5
[NH3+]C(Cc1ccc([B-]23OC[C@H]4O[C@@](CO)(O2)[C@@H](O3)[C@@H]4O)cc1)C(=O)O (some centres unmarked) [p-BPA-fructose complex],10B uptake,[5],increases the ^10 B uptake
same,osmotic property of solution,[6],greatly exceeding its iso-osmotic point with blood
same,toxicity,[7],toxicity observed
OC[C@H]1O[C@@](CO)(O[C@H]2O[C@H](CO)[C@@H](O)[C@H](O)[C@H]2O)[C@@H](O)[C@@H]1O [sucrose],binding with l-p-BPA,[1],complete lack of binding
same,change in the 1H NMR spectrum of l-p-BPA,[1],no change
[NH3+][C@@H](Cc1ccc([B-]23OC[C@H]4O[C@@](CO)(O2)[C@@H](O3)[C@@H]4O)cc1)C(=O)O [sodium l-p-boronophenylalanine-d-fructose complex],stability of the hydrated solution (remains dissolved),"[8]; prolonged standing (i.e., 48 hrs) at room temperature",remains completely dissolved
same,solubility,"[8]; warm water, 60° C.",~100 mg/mL
O=C[C@@H](O)[C@@H](O)[C@H](O)[C@H](O)CO [Mannose],"log Keq (complex formation constant, monosaccharides)",[1],1.3
CO[C@@H]1O[C@H](CO)[C@H](O)[C@H](O)[C@H]1O [methyl-β-galactopyranoside],binding with l-p-BPA,[1],complete lack of binding
same,change in the 1H NMR spectrum of l-p-BPA,[1],no change
O=C[C@H](O)[C@@H](O)[C@@H](O)[C@H](O)CO [Galactose],"log Keq (complex formation constant, monosaccharides)",[1],1.6
OC[C@H]1O[C@H](OC[C@H]2OC(O)(CO)[C@@H](O)[C@@H]2O)[C@H](O)[C@@H](O)[C@@H]1O (some centres unmarked) [Palatinose],decrease in the pKeq values of these complexes,[1],0.5 pKeq
same,"log Keq (complex formation constant, disaccharides)",[1],2.6
CO[C@H]1O[C@H](CO)[C@@H](O)[C@H](O)[C@H]1O [methyl-α-glucopyranoside],binding with l-p-BPA,[1],complete lack of binding
same,change in the 1H NMR spectrum of l-p-BPA,[1],no change
O=C(CO)[C@H](O)[C@@H](O)[C@H](O)CO [Sorbose],decrease in the pKeq values of these complexes,[1],0.5 pKeq
same,"log Keq (complex formation constant, monosaccharides)",[1],2.7
NC(Cc1ccc(B(O)O)cc1)C(=O)O (centres unmarked) [hydrochloric acid salts of p-BPA],pH value of solution,[9],approximately 1.5
same,pain on injection,[10],causes pain
OC[C@H]1O[C@@H](O[C@@H]2[C@@H](CO)OC(O)(CO)[C@H]2O)[C@H](O)[C@@H](O)[C@H]1O (mixture of isomers) [Lactulose],"log Keq (complex formation constant, disaccharides)",[1],3.0
same,difference in binding constants,[1],lack of appreciable difference in binding constants
